Data published in patent US5516795A, “Heteroatom substituted propanyl derivatives having 5-lipoxygenase inhibitory activity” (Abbott Laboratories, priority 1994, dated 1996).

Molecular target: T1, 5-Lipoxygenase (Homo sapiens, UniProt P09917)
T1 construct: Human heparinized whole blood was preincubated with test compounds; endogenous in cells; host or cells: human heparinized whole blood (endogenous enzyme of the blood cells)
T1 sequence (P09917 1-674): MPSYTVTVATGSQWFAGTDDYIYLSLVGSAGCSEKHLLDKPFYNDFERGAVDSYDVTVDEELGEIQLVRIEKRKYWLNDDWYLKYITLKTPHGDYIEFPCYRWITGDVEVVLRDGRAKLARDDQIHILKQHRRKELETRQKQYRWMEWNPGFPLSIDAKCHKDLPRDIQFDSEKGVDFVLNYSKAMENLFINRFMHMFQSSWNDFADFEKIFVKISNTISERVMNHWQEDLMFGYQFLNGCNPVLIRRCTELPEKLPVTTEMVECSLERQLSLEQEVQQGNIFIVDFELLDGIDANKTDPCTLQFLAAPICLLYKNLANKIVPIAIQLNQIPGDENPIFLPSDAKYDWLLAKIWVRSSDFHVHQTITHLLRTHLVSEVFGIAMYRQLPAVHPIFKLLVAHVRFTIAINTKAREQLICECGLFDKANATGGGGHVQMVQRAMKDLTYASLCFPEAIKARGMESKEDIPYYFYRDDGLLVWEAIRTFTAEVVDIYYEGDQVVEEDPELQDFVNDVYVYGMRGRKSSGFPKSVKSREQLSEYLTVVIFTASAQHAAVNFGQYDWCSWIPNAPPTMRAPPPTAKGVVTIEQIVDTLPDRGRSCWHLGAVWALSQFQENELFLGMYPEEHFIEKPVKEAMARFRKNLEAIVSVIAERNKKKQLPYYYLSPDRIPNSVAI
Assay: Inhibition of calcium ionophore A23187-induced LTB4 biosynthesis in human whole blood (5-lipoxygenase inhibition)
Type: cell-based
Conditions: A23187 8.3 μM; for inhibition at 0.1 µM: @ 0.10 μM
Protocol: Lipoxygenase Inhibition Determination
Inhibition of leukotriene biosynthesis was evaluated in an assay, involving calcium ionophore-induced LTB4 biosynthesis expressed human whole blood. Human heparinized whole blood was preincubated with test compounds or vehicle for 15 min at 37° C. followed by calcium ionophore A23187 challenge (final concentration of 8.3 μM) and the reaction terminated after 30 min by adding two volumes of methanol containing prostaglandin B2 as an internal recovery standard. The methanol extract was analyzed for LTB4 using a commercially available radioimmunoassay.
In Vitro Inhibitory Potencies of Compounds
of this Invention Against 5-Lipoxygenase from
Stimulated LTB4 Formation in Human Whole Blood

[1] = human whole blood, read-out: In vitro inhibition of 5-lipoxygenase / stimulated LTB4 formation (% printed under head "IC50 (10^-6 M)")

Compound COC[C@@H](OC)[C@@H](OC)c1cc(F)cc(OCc2ccc(N(C)C(=O)N(C)C)cc2)c1 [Example 14, anti-(1S, 2R)-1-[(5-fluoro-3-(4-(N', N'-dimethylaminocarbonyl-N-methylamino)benzyloxy)phenyl)]-1,2,3-trimethoxypropane] has an inhibition at 0.1 µM [1] of 49%.

In the case of C=CCN(C)c1ccc(Sc2cccc(/C(=N\OC)[C@H]3COC(C)(C)O3)c2)cc1 [Example 3 (E oxime), E-(4S)-O-methyl-2,2-dimethyl-4-[(3-(4-(N-allyl-N-methylamino)phenylthioxyl)phenyl)oximinomethyl]-1,3dioxolane], the IC50 (stimulated LTB4 formation in human whole blood, read-out: IC50 (10^-6 M)) is reported as 50 nM.

CO/N=C(/c1cccc(Sc2ccc(N(C)C(=O)N(C)C)cc2)c1)[C@H]1COC(C)(C)O1 [Example 4, Z-(4S)-O-methyl-2,2-dimethyl-4-[(3-(4-(N',N'-dimethylaminocarbonyl-N-methylamino)phenylthioxyl)phenyl)oximinomethyl]-1,3-dioxolane] showed an inhibition at 6.25 µM [1] of 100%.

For CO/N=C(\c1cccc(Sc2ccc(N(C)C(=O)N(C)C)cc2)c1)[C@H]1COC(C)(C)O1 [Example 5, E-(4S)-O-methyl-2,2-dimethyl-4-[(3-(4-(N',N': dimethylaminocarbonyl-N-methylamino)phenylthioxyl)phenyl)oximinomethyl]-1,3: dioxolane], the inhibition at 0.78 µM (@ 0.78 μM, human whole blood, read-out: In vitro inhibition of 5-lipoxygenase / stimulated LTB4 formation (% printed under head "IC50 (10^-6 M)")) was 100%.

For C=CCN(C)c1ccc(Sc2cccc(/C(=N/OC)[C@H]3COC(C)(C)O3)c2)cc1 [Example 3 (Z oxime), Z-(4S)-O-Methyl-2,2-dimethyl-4-[(3-(4-(N-allyl-N-methylamino)phenylthioxyl)phenyl)oximinomethyl]-1,3-dioxolane], the inhibition at 6.25 µM [1] was 99%.

Compound CO/N=C(\c1cc(F)cc(OCc2ccc(N(C)C(=O)N(C)C)cc2)c1)[C@H]1COC(C)(C)O1 [Example 1, E-(4S)-O-methyl-2,2-dimethyl-4-[(5-fluoro-3-(4-(N',N'-dimethylaminocarbonyl-N-methylamino)benzyloxy)phenyl)oximinomethyl]-1,3-dioxolane] has an inhibition at 0.1 µM [1] of 100%.

CO/N=C(\c1cc(F)cc(OCc2ccc(N(C)C(C)=O)cc2)c1)[C@H]1COC(C)(C)O1 [Example 2, E-(4S)-O-methyl-2,2-dimethyl-4-[(5-fluoro-3-(4-(N-acetyl-N-methylamino)benzyloxy)phenyl)oximinomethyl]-1,3-dioxolane] showed an inhibition at 0.2 µM (@ 0.20 μM, human whole blood, read-out: In vitro inhibition of 5-lipoxygenase / stimulated LTB4 formation (% printed under head "IC50 (10^-6 M)")) of 82%.
